“And” between values parts separate entries of the source, which are not always exact repeats. Equal values may be shown once. Read-outs that look alike come from different tables or passages of the source. Where a SMILES comes first, the peptide text is derived from it. The star is where a group is joined. MeOSuc = COC(=O)CCC(=O)*; CH2Cl = ClC*
What was measured:
collagenase = assay: Collagenase inhibition assay; assay type: biochemical
Description: A collagenase inhibition assay was performed to determine the collagenase inhibition of an extract derived from sugar cane of the present disclosure. Two batches (replicate 1 and replicate 2) of an extract derived from sugar cane of the present disclosure in a concentration of from 0.17 mg/mL to 350 mg/mL were tested for the ability to inhibit collagenase.
To measure collagenase inhibition potential of an extract derived from sugar cane of the present disclosure, a test sample of an extract derived from sugar cane was mixed sequentially with type-I collagen substrate and a diluted collagenase enzyme solution. After incubation for 30 minutes at 37° C., fluorescence was measured at excitation maxima of 495 nm and emission maxima of 515 nm. The inhibition percentage was calculated as follows.
[formula] Wherein, • Abssample=absorbance of the sample test, • Absblank=absorbance of the sample blank, • Abspositive control=absorbance of the positive control, and • Absnegative control=absorbance of the negative control.
1,10-phenanthroline was used as a positive assay control. Two batches (replicate 1 and replicate 2) of 1,10-phenanthroline in a concentration of from 1.7 μM to 3500 μM were used in the positive control assay. A negative control was performed with a buffer and a collagen substrate but without collagenase enzyme.

telomerase = target: T1, telomerase (Homo sapiens, UniProt O14746); assay: Cellular telomerase activity assay (TRAP); assay type: cell-based; design: Telomerase activity Replicate 1 / Telomerase activity Replicate 2 / Telomerase activity Average: unit not given here
T1 construct: endogenous in cells
T1 sequence (O14746 whole entry): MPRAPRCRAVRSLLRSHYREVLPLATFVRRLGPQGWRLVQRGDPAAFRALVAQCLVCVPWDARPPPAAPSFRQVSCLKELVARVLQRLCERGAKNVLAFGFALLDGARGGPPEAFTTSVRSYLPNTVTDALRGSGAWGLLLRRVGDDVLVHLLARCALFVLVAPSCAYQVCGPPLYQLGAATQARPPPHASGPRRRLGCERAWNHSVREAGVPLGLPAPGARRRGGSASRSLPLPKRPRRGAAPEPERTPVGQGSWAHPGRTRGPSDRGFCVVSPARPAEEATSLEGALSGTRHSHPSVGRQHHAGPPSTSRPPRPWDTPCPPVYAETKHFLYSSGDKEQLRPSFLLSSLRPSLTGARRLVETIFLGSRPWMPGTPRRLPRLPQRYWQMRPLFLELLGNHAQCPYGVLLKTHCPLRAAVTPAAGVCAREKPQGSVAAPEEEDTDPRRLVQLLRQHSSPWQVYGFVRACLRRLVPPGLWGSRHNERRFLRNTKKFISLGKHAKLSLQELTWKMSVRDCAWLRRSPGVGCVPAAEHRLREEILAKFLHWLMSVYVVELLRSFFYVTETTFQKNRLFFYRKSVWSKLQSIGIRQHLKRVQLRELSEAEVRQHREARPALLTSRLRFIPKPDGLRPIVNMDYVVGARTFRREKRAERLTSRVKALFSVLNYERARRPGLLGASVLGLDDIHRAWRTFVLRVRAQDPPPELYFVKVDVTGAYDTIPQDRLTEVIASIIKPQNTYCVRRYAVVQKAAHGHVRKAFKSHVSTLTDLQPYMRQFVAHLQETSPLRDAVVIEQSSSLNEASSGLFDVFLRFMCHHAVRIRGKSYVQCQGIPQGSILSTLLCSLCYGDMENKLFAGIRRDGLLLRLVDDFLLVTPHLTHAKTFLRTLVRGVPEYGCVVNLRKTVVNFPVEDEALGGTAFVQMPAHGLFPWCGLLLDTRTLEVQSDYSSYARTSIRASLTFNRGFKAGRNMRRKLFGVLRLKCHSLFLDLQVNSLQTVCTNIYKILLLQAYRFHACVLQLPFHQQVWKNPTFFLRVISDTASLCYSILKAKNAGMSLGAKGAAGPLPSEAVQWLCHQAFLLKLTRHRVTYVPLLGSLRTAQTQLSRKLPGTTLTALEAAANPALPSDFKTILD
Description: A cellular telomerase activity assay determines the ability of a test material to stimulate telomerase activity in human cells, which translates to the material's anti-aging potential. […]
In the cellular telomerase activity assay, telomerase activity level of human cells treated with (and without) a test sample of an extract derived from sugar cane of the present disclosure was monitored. Specifically, a telomeric repeat amplification protocol (TRAP assay) was used for the assay. The TRAP assay was divided into three main steps: extension, amplification, and detection of telomerase products. In the extension phase, telomeric sequences were added to the telomerase substrate, a non-telomeric oligonucleotide, through the action of telomerase present in the cell extract. The products of the extension step were amplified by PCR using specific primers and finally were analyzed via electrophoresis.
Cycloastragenol, a known telomerase activator, was used as an assay control. Two batches (replicate 1 and replicate 2) of cycloastragenol in a concentration from 0.06 μM to 3 μM were used in the control assay.

[1] = test system: melanin production in human skin cells; assay: Cellular melanin pigmentation inhibition assay; assay type: cell-based; settings: for EC50 / inhibition at 10 µM / inhibition at 0.31 µM / inhibition at 0.63 µM / inhibition at 1.25 µM / inhibition at 2.5 µM / inhibition at 5 µM: Homo sapiens
Description: A melanin production inhibition assay was performed to determine the potential of an extract derived from sugar cane of the present disclosure to inhibit melanin production.
To measure melanin pigmentation inhibition potential of an extract derived from sugar cane of the present disclosure, a test sample of an extract derived from sugar cane, in combination with theophylline, was added to a pre-incubated human skin cell culture. After incubating for 72 hours, the cells were washed with phosphate-buffered saline (PBS), lysed in 1 M NaOH, and boiled for 5 minutes to solubilize the melanin. The inhibition rates of the lysates were measured at 490 nm and expressed as a percentage relative to the value of the untreated control.
Chloroquine, a known melanin production inhibitor, was used as an assay control. Two batches (replicate 1 and replicate 2) of chloroquine in a concentration from 0.31 μM to 10 μM were used in the control assay.

elastase = target: T2, elastase (Homo sapiens, UniProt P08246); assay: Elastase inhibition assay; assay type: biochemical
T2 sequence (P08246 30-247): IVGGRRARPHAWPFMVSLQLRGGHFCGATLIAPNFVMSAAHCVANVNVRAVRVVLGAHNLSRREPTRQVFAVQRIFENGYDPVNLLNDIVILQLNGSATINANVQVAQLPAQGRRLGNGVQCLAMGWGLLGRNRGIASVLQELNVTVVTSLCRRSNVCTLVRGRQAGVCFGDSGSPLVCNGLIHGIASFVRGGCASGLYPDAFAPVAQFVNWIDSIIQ
Description: An elastase inhibition assay was performed to determine the elastase inhibition potential of an extract derived from sugar cane of the present disclosure. […] To measure elastase inhibitory potential of an extract derived from sugar cane of the present disclosure, a test sample of an extract derived from sugar cane was mixed and incubated with N-methoxysuccinyl-[…]-chloromethyl ketone in tris-HCl buffer for 15 min. Then elastase was added to the mixture and incubated for 15 min. […] [formula] Wherein, • Abssample+elastase=absorbance of test sample after incubation with elastase, • Abssample-elastase=absorbance of test sample before incubation with elastase, • Absblank+elastase=absorbance of blank after incubation with elastase, and • Absblank-elastase=absorbance of blank before incubation with elastase. N-methoxysuccinyl-[…]-chloromethyl ketone, a human leukocyte elastase (HLE) inhibitor, was used as an assay control.

[2] = read-out: Melanin inhibition (%) Average
[3] = read-out: Melanin inhibition (%) Replicate 1
[4] = read-out: Melanin inhibition (%) Replicate 2
[5] = read-out: Inhibition (%) Average
[6] = read-out: Inhibition (%) Relicate 1
[7] = read-out: Inhibition (%) Replicate 2

Compound: c1cnc2c(c1)ccc1cccnc12 [1,10-phenanthroline]
- Concentration inducing the maximum inhibition (collagenase) (collagenase): 3.50 mM
- Inhibition (%) Average (collagenase; 1.71 uM): −29.05%
- Inhibition (%) Relicate 1 (collagenase; 1.71 uM): −29.63%
- Inhibition (%) Replicate 2 (collagenase; 1.71 uM): −28.47%
- Inhibition (%) Average (collagenase; 3.42 uM): −25.76%
- Inhibition (%) Relicate 1 (collagenase; 3.42 uM): −27.08%
- Inhibition (%) Replicate 2 (collagenase; 3.42 uM): −24.45%
- Inhibition (%) Average (collagenase; 6.84 uM): −21.65%
- Inhibition (%) Relicate 1 (collagenase; 6.84 uM): −22.85%
- Inhibition (%) Replicate 2 (collagenase; 6.84 uM): −20.46%
- Inhibition (%) Average (collagenase; 13.67 uM): −6.70%
- Inhibition (%) Relicate 1 (collagenase; 13.67 uM): −7.40%
- Inhibition (%) Replicate 2 (collagenase; 13.67 uM): −6.00%
- Inhibition (%) Average (collagenase; 27.34 uM): 24.95%
- Inhibition (%) Relicate 1 (collagenase; 27.34 uM): 25.64%
- Inhibition (%) Replicate 2 (collagenase; 27.34 uM): 24.25%
- Inhibition (%) Average (collagenase; 54.69 uM): 58.50%
- Inhibition (%) Relicate 1 (collagenase; 54.69 uM): 57.26%
- Inhibition (%) Replicate 2 (collagenase; 54.69 uM): 59.74%
- Inhibition (%) Average (collagenase; 109.38 uM): 71.66%
- Inhibition (%) Relicate 1 (collagenase; 109.38 uM): 71.77%
- Inhibition (%) Replicate 2 (collagenase; 109.38 uM): 71.54%
- Inhibition (%) Average (collagenase; 218.75 uM): 75.46%
- Inhibition (%) Relicate 1 (collagenase; 218.75 uM): 75.14%
- Inhibition (%) Replicate 2 (collagenase; 218.75 uM): 75.78%
- Inhibition (%) Average (collagenase; 437.50 uM): 77.01%
- Inhibition (%) Relicate 1 (collagenase; 437.50 uM): 76.63%
- Inhibition (%) Replicate 2 (collagenase; 437.50 uM): 77.39%
- Inhibition (%) Average (collagenase; 875.00 uM): 77.37%
- Inhibition (%) Relicate 1 (collagenase; 875.00 uM): 77.01%
- Inhibition (%) Replicate 2 (collagenase; 875.00 uM): 77.72%
- Inhibition (%) Average (collagenase; 1750.00 uM): 77.27%
- Inhibition (%) Relicate 1 (collagenase; 1750.00 uM): 76.83%
- Inhibition (%) Replicate 2 (collagenase; 1750.00 uM): 77.71%
- Inhibition (%) Average (collagenase; 3500.00 uM): 78.99%
- Inhibition (%) Relicate 1 (collagenase; 3500.00 uM): 79.75%
- Inhibition (%) Replicate 2 (collagenase; 3500.00 uM): 78.24%
- Maximum inhibition achieved (collagenase) (collagenase; at 3.50 mM): 78.99%
- EC50 (collagenase; effective concentration at 50% of maximal inhibition): 26800 nM
- EC50 (collagenase inhibition) (collagenase; same value in mass units): (4.84 μg/mL)

Compound: CC(C)(O)[C@@H]1CC[C@](C)([C@H]2[C@@H](O)C[C@@]3(C)[C@@H]4C[C@H](O)[C@H]5C(C)(C)[C@@H](O)CC[C@@]56C[C@@]46CC[C@]23C)O1 [Cycloastragenol]
- Telomerase activity Average (telomerase; 0.06 μM): 1387.33
- Telomerase activity Replicate 1 (telomerase; 0.06 μM): 925.83
- Telomerase activity Replicate 2 (telomerase; 0.06 μM): 1848.83
- Telomerase activity Average (telomerase; 0.13 μM): 1916.83
- Telomerase activity Replicate 1 (telomerase; 0.13 μM): 2080.83
- Telomerase activity Replicate 2 (telomerase; 0.13 μM): 1752.83
- Telomerase activity Average (telomerase; 0.25 μM): 5523.83
- Telomerase activity Replicate 1 (telomerase; 0.25 μM): 5415.83
- Telomerase activity Replicate 2 (telomerase; 0.25 μM): 5631.83
- Telomerase activity Average (telomerase; 0.50 μM): 7501.33
- Telomerase activity Replicate 1 (telomerase; 0.50 μM): 7834.83
- Telomerase activity Replicate 2 (telomerase; 0.50 μM): 7167.83
- Telomerase activity Average (telomerase; 1.00 μM): 15556.33
- Telomerase activity Replicate 1 (telomerase; 1.00 μM): 15590.83
- Telomerase activity Replicate 2 (telomerase; 1.00 μM): 15521.83
- Telomerase activity Average (telomerase; 3.00 μM): 21909.33
- Telomerase activity Replicate 1 (telomerase; 3.00 μM): 20995.83
- Telomerase activity Replicate 2 (telomerase; 3.00 μM): 22822.83
- EC50 (telomerase; half-maximal telomerase activation, human cells): 790 nM
- EC50 (telomerase activation) (telomerase; same value in mass units): (0.39 μg/mL

Compound: CCN(CC)CCCC(C)Nc1ccnc2cc(Cl)ccc12 (stereo not drawn) [chloroquine, Chloroquine]
- Concentration inducing the maximum inhibition [1]: 10 µM
- EC50 [1]: 0.74 µg/mL and 1.43 µM
- EC50 ([1]; 72 h, read-out: EC50 (melanin production inhibition)): 1430 nM
- inhibition at 10 µM ([1]; read-out: Maximum inhibition achieved): 88.1%
- inhibition at 0.31 µM [1, 2]: 0.92%
- inhibition at 0.63 µM [1, 2]: 16.1%
- inhibition at 1.25 µM [1, 2]: 34.3%
- inhibition at 2.5 µM [1, 2]: 76.1%
- inhibition at 5 µM [1, 2]: 83.1%
- inhibition at 10 µM [1, 2]: 88.1%
- inhibition at 0.31 µM [1, 3]: 1.77%
- inhibition at 0.63 µM [1, 3]: 15.5%
- inhibition at 1.25 µM [1, 3]: 36.5%
- inhibition at 2.5 µM [1, 3]: 76.6%
- inhibition at 5 µM [1, 3]: 79.8%
- inhibition at 10 µM [1, 3]: 85.7%
- inhibition at 0.31 µM [1, 4]: 0.06%
- inhibition at 0.63 µM [1, 4]: 16.7%
- inhibition at 1.25 µM [1, 4]: 32.1%
- inhibition at 2.5 µM [1, 4]: 75.6%
- inhibition at 5 µM [1, 4]: 86.4%
- inhibition at 10 µM [1, 4]: 90.5%

Compound: COC(=O)CCC(=O)NC(C)C(=O)NC(C)C(=O)N1CCCC1C(=O)NC(C(=O)CCl)C(C)C (stereo not drawn) [N-methoxysuccinyl-Ala-Ala-Pro-Val-chloromethyl ketone] (MeOSuc-AAPV-CH2Cl; configuration not given here)
- Concentration inducing the maximum inhibition (elastase) (elastase): 250 µM
- inhibition at 250 µM (elastase; Conc. 250.00 uM, read-out: Inhibition (%) Average): 87.7%
- inhibition at 250 µM (elastase; Conc. 250.00 uM, read-out: Inhibition (%) Relicate 1): 87.6%
- inhibition at 250 µM (elastase; Conc. 250.00 uM, read-out: Inhibition (%) Replicate 2): 87.8%
- inhibition at 0.12 µM (elastase; [5]): 10.3%
- inhibition at 0.24 µM (elastase; [5]): 18.2%
- inhibition at 0.49 µM (elastase; [5]): 30.3%
- inhibition at 0.98 µM (elastase; [5]): 45.7%
- inhibition at 1.95 µM (elastase; [5]): 59.2%
- inhibition at 3.91 µM (elastase; [5]): 68.7%
- inhibition at 7.81 µM (elastase; [5]): 76.3%
- inhibition at 15.63 µM (elastase; [5]): 81%
- inhibition at 31.25 µM (elastase; [5]): 84.4%
- inhibition at 62.5 µM (elastase; [5]): 86.1%
- inhibition at 125 µM (elastase; [5]): 87.2%
- inhibition at 0.12 µM (elastase; [6]): 10.1%
- inhibition at 0.24 µM (elastase; [6]): 18.3%
- inhibition at 0.49 µM (elastase; [6]): 29.9%
- inhibition at 0.98 µM (elastase; [6]): 45.3%
- inhibition at 1.95 µM (elastase; [6]): 58.8%
- inhibition at 3.91 µM (elastase; [6]): 68.5%
- inhibition at 7.81 µM (elastase; [6]): 76.2%
- inhibition at 15.63 µM (elastase; [6]): 81.1%
- inhibition at 31.25 µM (elastase; [6]): 84.3%
- inhibition at 62.5 µM (elastase; [6]): 86%
- inhibition at 125 µM (elastase; [6]): 87.1%
- inhibition at 0.12 µM (elastase; [7]): 10.5%
- inhibition at 0.24 µM (elastase; [7]): 18.2%
- inhibition at 0.49 µM (elastase; [7]): 30.6%
- inhibition at 0.98 µM (elastase; [7]): 46.1%
- inhibition at 1.95 µM (elastase; [7]): 59.6%
- inhibition at 3.91 µM (elastase; [7]): 69%
- inhibition at 7.81 µM (elastase; [7]): 76.3%
- inhibition at 15.63 µM (elastase; [7]): 80.8%
- inhibition at 31.25 µM (elastase; [7]): 84.5%
- inhibition at 62.5 µM (elastase; [7]): 86.2%
- inhibition at 125 µM (elastase; [7]): 87.3%
- inhibition at 250 µM (elastase; read-out: Maximum inhibition achieved (elastase)): 87.7%
